Test results from US10130693B2, “Peptides, combination of peptides and scaffolds for use in immunotherapeutic treatment of various cancers” (Immatics Biotechnologies GmbH, priority 2015, dated 2018).

Key:
CD8+ T cells = test: In vitro immunogenicity: T-cell priming with aAPCs loaded with HLA-A*24 peptide/MHC and anti-CD28, multimer staining; type: cell-based, human; conditions: HLA-A*24 peptides
Procedure: CD8+ T cells were primed using artificial APCs coated with anti-CD28 mAb and HLA-A*24 in complex with SEQ ID NO: 99 peptide (FIG. 5A, left panel), SEQ ID NO: 119 peptide (FIG. 5B, left panel), SEQ ID NO: 142 peptide (FIG. 5C, left panel) and SEQ ID NO: 174 peptide FIG. 5 (D, left panel), respectively. After three cycles of stimulation, the detection of peptide-reactive cells was performed by 2D multimer staining with A*24/SEQ ID NO: 99 (FIG. 5A), A*24/SEQ ID NO: 119 (FIG. 5B), A*24/SEQ ID NO: 142 (FIG. 5C) or A*24/SEQ ID NO: 174 (FIG. 5D). Right panels (FIGS. 5A,5B,5C and 5D) show control staining of cells stimulated with irrelevant A*24/peptide complexes. Viable singlet cells were gated for CD8+ lymphocytes. Boolean gates helped excluding false-positive events detected with multimers specific for different peptides. Frequencies of specific multimer+ cells among CD8+ lymphocytes are indicated.
Generation of pMHC/anti-CD28 coated beads, T-cell stimulations and readout was performed in a highly defined in vitro system using four different pMHC molecules per stimulation condition and 8 different pMHC molecules per readout condition.
The purified co-stimulatory mouse IgG2a anti human CD28 Ab 9.3 (Jung et al., 1987) was chemically biotinylated using Sulfo-N-hydroxysuccinimidobiotin as recommended by the manufacturer (Perbio, Bonn, Germany). Beads used were 5.6 μm diameter streptavidin coated polystyrene particles (Bangs Laboratories, Illinois, USA).
800.000 beads/200 μl were coated in 96-well plates in the presence of 4×12.5 ng different biotin-pMHC, washed and 600 ng biotin anti-CD28 were added subsequently in a volume of 200 μl. Stimulations were initiated in 96-well plates by co-incubating 1×10^6 CD8+ T cells with 2×10^5 washed coated beads in 200 μl TCM supplemented with 5 ng/ml IL-12 (PromoCell) for 3 days at 37° C. Half of the medium was then exchanged by fresh TCM supplemented with 80 U/ml IL-2 and incubating was continued for 4 days at 37° C. This stimulation cycle was performed for a total of three times. For the pMHC multimer readout using 8 different pMHC molecules per condition, a two-dimensional combinatorial coding approach was used as previously described (Andersen et al., 2012) with minor modifications encompassing coupling to 5 different fluorochromes. Finally, multimeric analyses were performed by staining the cells with Live/dead near IR dye (Invitrogen, Karlsruhe, Germany), CD8-FITC antibody clone SK1 (BD, Heidelberg, Germany) and fluorescent pMHC multimers. For analysis, a BD LSRII SORP cytometer equipped with appropriate lasers and filters was used. Peptide specific cells were calculated as percentage of total CD8+ cells. Evaluation of multimeric analysis was done using the FlowJo software (Tree Star, Oregon, USA). In vitro priming of specific multimer+CD8+ lymphocytes was detected by comparing to negative control stimulations.

HLA-A*24 = test: MHC binding assay, UV-ligand exchange with beta2m ELISA (exchange yield), HLA-A*24; parameters: species or system human; conditions: binding to HLA-A*24, UV-ligand exchange
How it was run: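 Peptide–MHC complexes formed by UV-ligand exchange: a UV-cleavable peptide is replaced by the test peptide, and only binders keep the complex stable. Exchange yield read by streptavidin-capture ELISA on reactions diluted 100-fold, detected with HRP anti-β2m (2 ug/ml, 1 h, 37° C) and TMB at 450 nm.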

| Substance | in vitro immunogenicity, Wells positive [%] (CD8+ T cells) | Peptide exchange (MHC class I binding score, peptide exchange yield) (HLA-A*24) |
| --- | --- | --- |
| 186 (VFTTSSNIF; listed as Homo sapiens) [compound 186] | + (<20% = +) | ++++ (>=75% = ++++) |
| 366 (QYLELAHSL; listed as Homo sapiens) [compound 366] | ++ (20%-49% = ++) | +++ (50%-75% = +++) |
| 103 (NYIPVKNGKQF; listed as Homo sapiens) [compound 103] | + (<20% = +) | +++ (50%-75% = +++) |
| 344 (EYNSDLHQF; listed as Homo sapiens) [compound 344] | + (<20% = +) | +++ (50%-75% = +++) |
| 106 (IYNETVRDLL; listed as Homo sapiens) [compound 106] | + (<20% = +) | +++ (50%-75% = +++) |
| 371 (AYSHLRYVF; listed as Homo sapiens) [compound 371] | ++ (20%-49% = ++) | ++ (20%-49% = ++) |
| 363 (SYAELGTTI; listed as Homo sapiens) [compound 363] | + (<20% = +) | ++ (20%-49% = ++) |
| 144 (VFASLPGFLF; listed as Homo sapiens) [compound 144] | ++ (20%-49% = ++) | ++++ (>=75% = ++++) |
| 175 (LYSPVPFTL; listed as Homo sapiens) [compound 175] | + (<20% = +) | +++ (50%-75% = +++) |
| 163 (RYLTISNLQF; listed as Homo sapiens) [compound 163] | + (<20% = +) | ++++ (>=75% = ++++) |
| 102 (VYPFENFEF; listed as Homo sapiens) [compound 102] | +++ (50%-69% = +++) | +++ (50%-75% = +++) |
| 99 (QYILAVPVL; listed as Homo sapiens) [compound 99] | +++ (50%-69% = +++) | ++++ (>=75% = ++++) |
| 174 (VYEKNGYIYF; listed as Homo sapiens) [compound 174] | ++++ (>=70% = ++++) | +++ (50%-75% = +++) |
| 107 (KYFPYLVVI; listed as Homo sapiens) [compound 107] | ++ (20%-49% = ++) | +++ (50%-75% = +++) |
| 349 (QYSIISNVF; listed as Homo sapiens) [compound 349] | ++ (20%-49% = ++) | +++ (50%-75% = +++) |
| 157 (DYIPASGFALF; listed as Homo sapiens) [compound 157] | + (<20% = +) | +++ (50%-75% = +++) |
| 359 (NYGVLHVTF; listed as Homo sapiens) [compound 359] | + (<20% = +) | ++++ (>=75% = ++++) |
| 180 (KYLQVVGMF; listed as Homo sapiens) [compound 180] | + (<20% = +) | +++ (50%-75% = +++) |
| 98 (VFPRLHNVLF; listed as Homo sapiens) [compound 98] | + (<20% = +) | +++ (50%-75% = +++) |
| 105 (IYNETITDLL; listed as Homo sapiens) [compound 105] | + (<20% = +) | +++ (50%-75% = +++) |
| 120 (GYIEHFSLW; listed as Homo sapiens) [compound 120] | ++ (20%-49% = ++) | ++++ (>=75% = ++++) |
| 356 (NYMPGQLTI; listed as Homo sapiens) [compound 356] | + (<20% = +) | ++++ (>=75% = ++++) |
| 160 (RYGDGGSSF; listed as Homo sapiens) [compound 160] | + (<20% = +) | +++ (50%-75% = +++) |
| 142 (VYVDDIYVI; listed as Homo sapiens) [compound 142] | ++++ (>=70% = ++++) | +++ (50%-75% = +++) |
| 115 (RYLNKSFVL; listed as Homo sapiens) [compound 115] | + (<20% = +) | +++ (50%-75% = +++) |
| 119 (VYRVYVTTF; listed as Homo sapiens) [compound 119] | +++ (50%-69% = +++) | +++ (50%-75% = +++) |
| 177 (VYFKAGLDVF; listed as Homo sapiens) [compound 177] | + (<20% = +) | +++ (50%-75% = +++) |
| 170 (QYPFHVPLL; listed as Homo sapiens) [compound 170] | +++ (50%-69% = +++) | ++++ (>=75% = ++++) |
| 181 (VYPPYLNYL; listed as Homo sapiens) [compound 181] | ++++ (>=70% = ++++) | +++ (50%-75% = +++) |
| 112 (IYNFVESKL; listed as Homo sapiens) [compound 112] | +++ (50%-69% = +++) | +++ (50%-75% = +++) |
